Consider 22 molecules from US20130217702A1 (Richter Gedeon Nyrt., priority 2010, published 2013).

In assay [1] the target is T1, recombinant human B1 receptors (Homo sapiens, UniProt P46663).
T1 construct: host or cells: CHO (CHO-B1)
T1 sequence (P46663 1-353): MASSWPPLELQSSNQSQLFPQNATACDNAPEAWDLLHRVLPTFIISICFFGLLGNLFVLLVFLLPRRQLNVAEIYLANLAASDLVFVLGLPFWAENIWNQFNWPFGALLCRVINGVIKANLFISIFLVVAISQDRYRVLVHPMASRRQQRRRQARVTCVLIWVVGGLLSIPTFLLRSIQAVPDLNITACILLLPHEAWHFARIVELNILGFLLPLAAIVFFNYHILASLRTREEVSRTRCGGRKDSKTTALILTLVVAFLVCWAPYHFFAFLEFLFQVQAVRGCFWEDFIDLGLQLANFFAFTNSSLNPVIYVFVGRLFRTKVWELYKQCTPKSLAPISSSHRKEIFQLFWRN
The assay can be described thus: Functional assay: antagonist potency by cytosolic calcium measurement (plate reader fluorimeter) in CHO-B1 cells, agonist LysDABK. Type of assay: cell-based. As to conditions: CHO-B1 cells, inhibition of LysDABK (EC80)-evoked [Ca2+]i elevation; read-out: B1 func. In a few lines: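 IC50 is the concentration giving half-maximal inhibition of the LysDABK (EC80) calcium response, fitted from at least three experiments. CHO cells stably expressing human B1 were dye-loaded, exposed to compound for 20-25 min, then read by fluo-4 fluorescence (ΔF/F) at 37 °C.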

The target in assay [2] is T2, human recombinant bradykinin B1 receptor (Homo sapiens, UniProt P46663).
T2 construct: host or cells: CHO cells, clone hB1-A5
T2 sequence (P46663 1-353): T1 sequence (P46663 1-353)
The assay can be described thus: Human recombinant bradykinin B1 receptor competitive radioligand binding. The following applies: hB1 expressed in CHO cells, [3H]-[Des-Arg10] Kallidin radioligand; read-out: B1 binding. In short, it runs like this:
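Membranes from CHO cells expressing hB1 (20 μg protein/tube) incubated 15 min at 25° C. with [3,4-prolyl-3,4-^3H(N)]-[Des-Arg^10] Kallidin; nonspecific binding defined with 10 μM Lys-des-Arg^9-Bradykinin. Bound label collected by filtration and counted. IC50 from ≥7-point curves in triplicate; Ki by Cheng-Prusoff.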

The structures appear in SMILES notation. pIC50, pKi: −log10 of the molar value. A value given as a limit tells only on which side of the number the result lay.

Consider `Cc1nc(-c2c(Cl)c3ccccc3n2-c2ccc(CNC(=O)C3(NC(=O)c4ccsc4)CC3)cc2)no1` [Example 167, Thiophene-3-carboxylic acid (1-{4-[3-chloro-2-(5-methyl-[1,2,4]oxadiazol-3-yl)-indol-1-yl]-benzylcarbamoyl}-cyclopropyl)-amide], for which the pIC50 in assay [1] was 7.00 to 7.70. For the same molecule, in assay [2], the pKi is 7.00 to 7.70.
For the molecule `Cc1nc(-c2c(Cl)c3ccccc3n2-c2ccc(CNC(=O)C3(NC(=O)c4ccnc(F)c4)CC3)c(F)c2)no1` [Example 109, N-(1-{4-[3-Chloro-2-(5-methyl-[1,2,4]oxadiazol-3-yl)-indol-1-yl]-2-fluoro-benzylcarbamoyl}-cyclopropyl)-2-fluoro-isonicotinamide], the pIC50 in assay [1] is > 7.70. The pKi in assay [2] is > 7.70.
Consider `Cn1nnc(-c2c(Cl)c3ccccc3n2-c2ccc(CNC(=O)C3(NC(=O)C(F)(F)F)CC3)c(F)c2)n1` [Example 4, 1-(2,2,2-Trifluoro-acetylamino)-cyclopropanecarboxylic acid 4-[3-chloro-2-(2-methyl-2H-tetrazol-5-yl)-indol-1-yl]-2-fluorobenzylamide], for which, in assay [1], the pIC50 is > 7.70. Besides, the pKi in assay [2] was > 7.70.
For `Cc1nc(-c2c(Cl)c3ccccc3n2-c2ccc(CNC(=O)C3(NC(=O)c4ccncc4F)CC3)cc2)no1` [Example 97, N-(1-{4-[3-Chloro-2-(5-methyl-[1,2,4]oxadiazol-3-yl)-indol-1-yl]-benzylcarbamoyl}-cyclopropyl)-3-fluoro-isonicotinamide], in assay [1], the pIC50 is 7.00 to 7.70. Besides, in assay [2], the pKi is > 7.70.
On the same counts, the results for `COc1cc(C(=O)NC2(C(=O)NCc3ccc(-n4c(-c5nnc(C)o5)c(Cl)c5cc(F)ccc54)cc3)CC2)on1` [Example 37, 3-Methoxy-isoxazole-5-carboxylic acid (1-{4-[3-chloro-5-fluoro-2-(5-methyl-[1,3,4]oxadiazol-2-yl)-indol-1-yl]-benzylcarbamoyl}-cyclopropyl)-amide] are > 7.70 and > 7.70.
For `Cc1cnc(C(=O)NC2(C(=O)NCc3ccc(-n4c(-c5noc(C)n5)c(Cl)c5cc(Cl)ccc54)cc3)CC2)cn1` [Example 72, 5-Methyl-pyrazine-2-carboxylic acid (1-{4-[3,5-dichloro-2-(5-methyl-[1,2,4]oxadiazol-3-yl)-indol-1-yl]-benzylcarbamoyl}-cyclopropyl)-amide] the same measures were > 7.70 and > 7.70.
Take `COc1cc(C(=O)NC2(C(=O)NCc3ccc(-n4c(C#N)cc5cc(F)ccc54)cc3)CC2)on1` [Example 49, 3-Methoxy-isoxazole-5-carboxylic acid {1-[4-(2-cyano-5-fluoro-indol-1-yl)-benzylcarbamoyl]-cyclopropyl}-amide]: in assay [1], the pIC50 is > 7.70. Moreover, in assay [2], the pKi was > 7.70.
In the case of `COC(=O)c1c(Cl)c2ccccc2n1-c1ccc(CNC(=O)C2(NC(=O)C(F)(F)F)CC2)c(F)c1` [Example 54, 3-Chloro-1-[3-fluoro-4-({[1-(2,2,2-trifluoro-acetylamino)-cyclopropanecarbonyl]-amino}-methyl)-phenyl]-1H-indole-2-carboxylic acid methyl ester], the pIC50 in assay [1] was > 7.70. Besides, in assay [2], the pKi was > 7.70.
Consider `Cc1nc(-c2c(Cl)c3ccccc3n2-c2ccc(CNC(=O)C3(NC(=O)c4cccc(Br)n4)CC3)cc2)no1` [Example 157, 6-Bromo-pyridine-2-carboxylic acid (1-{4-[3-chloro-2-(5-methyl-[1,2,4]oxadiazol-3-yl)-indol-1-yl]-benzylcarbamoyl}-cyclopropyl)-amide], for which the pIC50 in assay [1] was 7.00 to 7.70. The pKi in assay [2] was > 7.70.
For `Cc1nc(-c2c(Cl)c3ccccc3n2-c2ccc(CNC(=O)C3(NC(=O)C4CC4C)CC3)cc2)no1` (centres unmarked) [Example 138, 2-Methyl-cyclopropanecarboxylic acid (1-{4-[3-chloro-2-(5-methyl-[1,2,4]oxadiazol-3-yl)-indol-1-yl]-benzylcarbamoyl}-cyclopropyl)-amide] the same measures were 7.00 to 7.70 and > 7.70.
On the same counts, the results for `Cc1cc(C(=O)NC2(C(=O)NCc3ccc(-n4c(-c5noc(C)n5)c(Cl)c5cc(Cl)ccc54)cc3)CC2)no1` [Example 73, 5-Methyl-isoxazole-3-carboxylic acid (1-{4-[3,5-dichloro-2-(5-methyl-[1,2,4]oxadiazol-3-yl)-indol-1-yl]-benzylcarbamoyl}-cyclopropyl)-amide] are > 7.70 and > 7.70.
For `Cc1cnc(C(=O)NC2(C(=O)NCc3ccc(-n4c(-c5noc(C)n5)c(Cl)c5cc(F)ccc54)cc3)CC2)cn1` [Example 87, 5-Methyl-pyrazine-2-carboxylic acid (1-{4-[3-chloro-5-fluoro-2-(5-methyl-[1,2,4]oxadiazol-3-yl)-indol-1-yl]-benzylcarbamoyl}-cyclopropyl)-amide] the same measures were > 7.70 and > 7.70.
`Cn1nnc(-c2c(Cl)c3ccccc3n2-c2ccc(CNC(=O)C3(NC(=O)c4ccnc(F)c4)CC3)cc2)n1` [Example 28, N-(1-{4-[3-chloro-2-(2-methyl-2H-tetrazol-5-yl)-indol-1-yl]-benzylcarbamoyl}-cyclopropyl)-2-fluoro-isonicotinamide]: in assay [1], the pIC50 was > 7.70. Further, the pKi in assay [2] is > 7.70.
As for `Cc1nc(-c2c(F)c3cc(F)ccc3n2-c2ccc(CNC(=O)C3(NC(=O)C(F)(F)F)CC3)cc2)no1` [Example 199, 1-(2,2,2-Trifluoro-acetylamino)-cyclopropanecarboxylic acid 4-[3,5-difluoro-2-(5-methyl-[1,2,4]oxadiazol-3-yl)-indol-1-yl]-benzylamide], the pIC50 in assay [1] is > 7.70. The pKi in assay [2] is > 7.70.
`CSc1ncc(C(=O)NC2(C(=O)NCc3ccc(-n4c(-c5noc(C)n5)c(Cl)c5ccccc54)cc3)CC2)cn1` [Example 77, 2-Methylsulfanyl-pyrimidine-5-carboxylic acid (1-{4-[3-chloro-2-(5-methyl-[1,2,4]oxadiazol-3-yl)-indol-1-yl]-benzylcarbamoyl}-cyclopropyl)-amide]: in assay [1], the pIC50 was > 7.70. Moreover, the pKi in assay [2] was > 7.70.
In the case of `COc1cc(C(=O)NC2(C(=O)NCc3ccc(-n4c(C#N)c(Cl)c5ccccc54)cc3)CC2)on1` [Example 39, 3-Methoxy-isoxazole-5-carboxylic acid {1-[4-(3-chloro-2-cyano-indol-1-yl)-benzyl-carbamoyl]-cyclopropyl}-amide], the pIC50 in assay [1] is > 7.70. For the same molecule, the pKi in assay [2] was > 7.70.
Take `CNC(=O)c1c(Cl)c2ccccc2n1-c1ccc(C(C)NC(=O)C2(NC(=O)C(F)(F)F)CC2)cc1` (centres unmarked) [Example 32, 3-Chloro-1-[4-(1-{[1-(2,2,2-trifluoro-acetylamino)-cyclopropanecarbonyl]-amino}-ethyl)-phenyl]-1H-indole-2-carboxylic acid methylamide]: the pIC50 in assay [1] was > 7.70. The pKi in assay [2] is > 7.70.
With `Cc1nc(-c2c(Cl)c3ccccc3n2-c2ccc(CNC(=O)C3(NC(=O)c4cccs4)CC3)cc2)no1` [Example 172, Thiophene-2-carboxylic acid (1-{4-[3-chloro-2-(5-methyl-[1,2,4]oxadiazol-3-yl)-indol-1-yl]-benzylcarbamoyl}-cyclopropyl)-amide], in assay [1], the pIC50 was > 7.70. In addition, the pKi in assay [2] is > 7.70.
On to `COc1cc(C(=O)NC2(C(=O)NCc3ccc(-n4c(-c5cnco5)c(Cl)c5ccccc54)cc3)CC2)on1` [Example 16, 3-Methoxy-isoxazole-5-carboxylic acid (1-{4-[3-chloro-2-(1,3-oxazol-5-yl)-indol-1-yl]-benzylcarbamoyl}-cyclopropyl)-amide], for which, in assay [1], the pIC50 is > 7.70. Besides, in assay [2], the pKi was > 7.70.
Consider `COC(=O)c1c(Cl)c2c(F)cccc2n1-c1ccc(CNC(=O)C2(NC(=O)c3cc(OC)no3)CC2)cc1` [Example 68, 3-Chloro-4-fluoro-1-{4-[({1-[(3-methoxy-isoxazole-5-carbonyl)-amino]-cyclo-propanecarbonyl}-amino)-methyl]-phenyl}-1H-indole-2-carboxylic acid methyl ester], for which, in assay [1], the pIC50 was > 7.70. For the same molecule, in assay [2], the pKi was > 7.70.
As to `Cc1nc(-c2c(Cl)c3ccccc3n2-c2ccc(CNC(=O)C3(NC(=O)c4ccc(=O)[nH]c4)CC3)cc2)no1` [Example 160, 6-Oxo-1,6-dihydro-pyridine-3-carboxylic acid (1-{4-[3-chloro-2-(5-methyl-[1,2,4]oxadiazol-3-yl)-indol-1-yl]-benzylcarbamoyl}-cyclopropyl)-amide], the pIC50 in assay [1] was > 7.70. Besides, the pKi in assay [2] was > 7.70.
As to `COc1cc(C(=O)NC2(C(=O)NCc3ccc(-n4c(-c5nnn(C)n5)c(Cl)c5cc(F)ccc54)cn3)CC2)on1` [Example 59, 3-Methoxy-isoxazole-5-carboxylic acid [1-({5-[3-chloro-5-fluoro-2-(2-methyl-2H-tetrazol-5-yl)-indol-1-yl]-pyridin-2-ylmethyl}-carbamoyl)-cyclopropyl]-amide], the pIC50 in assay [1] was > 7.70. Moreover, the pKi in assay [2] is > 7.70.
